Legend:
TcCYP51 = conditions: formerly reported; cited from earlier work
[1] = system: T. cruzi Tulahuen trypomastigotes; assay: T. cruzi trypomastigote assay (Cell Titer-Glo viability, ATP luminescence); assay type: cell-based, Trypanosoma cruzi; conditions: for Trypomastigotes pIC50 48 hours: 48 hours incubation; for Trypomastigotes pIC50 48 hours / Trypomastigotes pIC50 72 hours: pIC50 = -log10 IC50 in molar units; for Trypomastigotes pIC50 72 hours: 72 hours incubation; for 48 pIC50 / 72 pIC50: trypomastigote assay; for 48 pIC50: 48 h; for 72 pIC50: 72 h
Description: T. cruzi Tulahuen trypomastigotes obtained from the supernatants of LLC-MK2 infected cultures in a 225 cm^2 T-Flasks harvested between days 5 and 8 of infection. Trypomastigotes (5 × 10^4 per well) in 50 μl of DMEM/ 2% FBS were dispensed into white 384 plates (Greiner) pre-stamped with 250 nl compound a single-shot final concentration of 5 μM, or in dose response. […] Cell Titer-Glo cell viability solution (Promega) was added to each well (50 μL) incubated at room temperature for 10 min and luminescence read by Envision plate reader (Perkin Elmer). This assay quantifies the amount of ATP present which is directly proportional to the number of metabolically active cells. All data were normalised (100% effect control for no cells and 0% effect control for DMSO). This assay was adapted from MacLean et al., 2018 [22].

| SMILES | CYP51 pIC50 (TcCYP51) | Trypomastigotes pIC50 48 hours [1] | Trypomastigotes pIC50 72 hours [1] | 48 pIC50 ([1]; figure 1A) | 72 pIC50 ([1]; figure 1A) | 72 pIC50 ([1]; figure 1B) |
| --- | --- | --- | --- | --- | --- | --- |
| CNc1cncc(C2CCCN2C(=O)Cc2ccc3ccccc3c2)n1 (stereo not drawn) [TCMDC-143465] | 7 | < 4.3 | < 4.3 | < 4.3 | < 4.3 | < 4.3 |
| O=C(NCCc1nc(-c2ccc(F)c(F)c2)n[nH]1)C1CCCCC1 [TCMDC-143466] | 4.6 | < 4.3 | 4.5 | – | – | – |
| COc1ccc(CN2CCCCC2c2nc(-c3cccnc3)no2)cc1 (stereo not drawn) [TCMDC-143467] | 6.7 | < 4.3 | < 4.3 | < 4.3 | < 4.3 | < 4.3 |
| COc1ccc(C(=O)N2CCC(Nc3cccnc3)C2)c(OC)n1 (stereo not drawn) [TCMDC-143474] | 7.2 | < 4.3 | < 4.3 | < 4.3 | < 4.3 | < 4.3 |
| CC(Cn1ccnc1)NC(=O)COc1ccc(Cl)c(Cl)c1 (stereo not drawn) [TCMDC-143479] | 7.2 | < 4.3 | < 4.3 | < 4.3 | < 4.3 | < 4.3 |
| O=C(c1cnn(-c2ccccc2)n1)N1CCCC(n2ccnc2)C1 (stereo not drawn) [TCMDC-143492] | 7.1 | < 4.3 | < 4.3 | < 4.3 | < 4.3 | < 4.3 |
| Cc1ccccc1OCC(=O)N1CCCN(c2cccnn2)CC1 [TCMDC-143495] | 7.1 | < 4.3 | < 4.3 | < 4.3 | < 4.3 | < 4.3 |
| CC(Cn1ccnc1)NC(=O)C1CC1c1cccc(Cl)c1Cl (stereo not drawn) [TCMDC-143506] | 6.9 | < 4.3 | < 4.3 | < 4.3 | < 4.3 | < 4.3 |
| COc1ccc2ncc(F)c(NC(=O)[C@]3(O)CC[C@@H](NCc4ccc5c(c4)OCCO5)CC3)c2n1.Cl [TCMDC-143507] | 4.2 | 4.4 | 4.4 | 4.4 | 4.4 | 4.4 |
| O=C(Cn1cnc2cc([N+](=O)[O-])ccc2c1=O)NCCc1ccc(Cl)cc1Cl [TCMDC-143519] | < 4 | 5.9 | 6.1 | – | – | – |
| O=c1ccn(-c2ccc([N+](=O)[O-])cc2Cl)c2ccc(F)cc12 [TCMDC-143520] | 4.8 | < 4.3 | < 4.3 | < 4.3 | < 4.3 | < 4.3 |
| COc1ccc2nccc([C@H](O)CN3CC[C@H](NC(=O)c4ccc(Br)cc4)[C@@H](O)C3)c2n1 [TCMDC-143527] | 5.2 | < 4.3 | < 4.3 | < 4.3 | < 4.3 | < 4.3 |
| COc1ccc([N+](=O)[O-])cc1NC(=O)Nc1cccc(Cl)c1 [TCMDC-143528] | < 4 | 5.6 | < 4.3 | – | – | – |
| O=C(Nc1cccc(Cl)c1)N1CCCCC1c1cccnc1 (stereo not drawn) [TCMDC-143529] | 7.7 | < 4.3 | < 4.3 | < 4.3 | < 4.3 | < 4.3 |
| Cc1ccc(C)c(-n2nnnc2Sc2nc([N+](=O)[O-])nn2C)c1 [TCMDC-143530] | < 4 | 5.3 | 5.4 | – | – | – |
| Cc1ccc(S(=O)(=O)Cn2nnnc2C(c2cccnc2)N2CCN(c3ccccc3)CC2)cc1 (stereo not drawn) [TCMDC-143539] | 6.7 | < 4.3 | < 4.3 | < 4.3 | < 4.3 | < 4.3 |
| Cc1cc(C#N)c([N+](=O)[O-])cc1Br [TCMDC-143541] | 5.1 | 5.8 | 5.5 | – | – | – |
| O=S(=O)(NCC(c1cccnc1)N1CCN(c2ccc(F)cc2)CC1)c1cccs1 (stereo not drawn) [TCMDC-143542] | 7.4 | < 4.3 | < 4.3 | < 4.3 | < 4.3 | < 4.3 |
| CC(C(=O)Nc1ccc(Br)cc1)N1CCN(c2ccc([N+](=O)[O-])cc2)CC1 (stereo not drawn) [TCMDC-143545] | 4.4 | < 4.3 | < 4.3 | < 4.3 | < 4.3 | < 4.3 |

| SMILES | CYP51 pIC50 (TcCYP51) | Trypomastigotes pIC50 48 hours [1] | Trypomastigotes pIC50 72 hours [1] | 48 pIC50 ([1]; figure 1A) | 72 pIC50 ([1]; figure 1A) | 72 pIC50 ([1]; figure 1B) |
| --- | --- | --- | --- | --- | --- | --- |
| Cc1cc2ncn(-c3ccc([N+](=O)[O-])cc3C#N)c2cc1C [TCMDC-143546] | < 4 | 5.7 | 5.9 | – | – | – |
| Cc1ccc2nc(N(Cc3cccnc3)C(=O)CCc3ccccc3)sc2c1 [TCMDC-143553] | 7.2 | 4.7 | < 4.3 | – | – | – |
| O=C(Nc1cccc(F)c1)N1CCC(Oc2cccc(-c3cccnc3)c2)CC1 [TCMDC-143555] | 6.8 | < 4.3 | < 4.3 | < 4.3 | < 4.3 | < 4.3 |
| O=[N+]([O-])c1cccc(Nc2cncc(-c3ccccc3CO)c2)c1 [TCMDC-143559] | 5.5 | < 4.3 | < 4.3 | < 4.3 | < 4.3 | < 4.3 |
| O=C(NC(c1ccc(Cl)cc1)c1cnccn1)C1CCN(C(=O)Nc2cccc(C(F)(F)F)c2)CC1 (stereo not drawn) [TCMDC-143561] | 6.9 | < 4.3 | < 4.3 | < 4.3 | < 4.3 | < 4.3 |
| O=C(COc1ncnc2cc([N+](=O)[O-])ccc12)NC(=O)NC1CCCCC1 [TCMDC-143564] | < 4 | 5.7 | 5.9 | – | – | – |
| Clc1cc(Br)ccc1OCCCCn1ccnc1.O=C(O)C(=O)O [TCMDC-143590] | 7.2 | 5.4 | 5.3 | – | – | – |
| CC(C)Oc1ccc(C(=O)Nc2ccc(N3CCOCC3)c(Cl)c2)cc1 [TCMDC-143592] | < 4 | < 4.3 | < 4.3 | < 4.3 | < 4.3 | < 4.3 |
| Cl.Cl.NC(=O)c1ccc(-c2cccc(OCCN3CCN(C4CCCCC4)CC3)c2)cc1 [TCMDC-143598] | 4.4 | < 4.3 | < 4.3 | < 4.3 | < 4.3 | < 4.3 |
| CCCC(=O)N(Cc1ccccn1)c1nc2ccccc2s1 [TCMDC-143599] | 7.3 | < 4.3 | < 4.3 | < 4.3 | < 4.3 | < 4.3 |
| Clc1ccc(CN2CCN(C3=NCCN3)CC2)cc1Cl.I.I [TCMDC-143605] | < 4 | 5.6 | 5.3 | – | – | – |
| N#Cc1c(Oc2cccc(Cl)c2)cccc1[N+](=O)[O-] [TCMDC-143608] | < 4 | 6.9 | 6.9 | 6.9 | 6.9 | 6.9 |
| Cc1cc(N(C)C)nc2ccc(Cc3cnc(N)nc3N)cc12 [TCMDC-143611] | < 4 | 4.6 | 5.9 | – | – | – |
| O=C(NCC1CCCCC1)c1cnns1 [TCMDC-143612] | < 4 | 4.7 | 4.9 | – | – | – |
| O=C1CN(C2CCCc3c(OCc4ccncc4)cccc32)C(=O)N1C1CCCCC1 (stereo not drawn) [TCMDC-143613] | 7.7 | < 4.3 | < 4.3 | < 4.3 | < 4.3 | < 4.3 |
| CC(C)(C)C(O)(CCc1ccc(Cl)cc1)Cn1cncn1 (stereo not drawn) [TCMDC-143614] | 6.9 | < 4.3 | < 4.3 | < 4.3 | < 4.3 | < 4.3 |
| Cc1cccc(NS(=O)(=O)c2ccc3c(c2)C(=O)c2cc(S(=O)(=O)Nc4cccc(C)c4C)ccc2-3)c1C [TCMDC-143615] | < 4 | 5 | 4.8 | – | – | – |
| O=C(Cn1cnc([N+](=O)[O-])n1)Nc1ccc(Cl)cc1C(=O)c1ccccc1 [TCMDC-143616] | 5 | 6 | 6 | 6 | 6 | 6 |

From PMC8318231, “Rate-of-Kill (RoK) assays to triage large compound sets for Chagas disease drug discovery: Application to GSK Chagas Box” (PLoS Neglected Tropical Diseases, 2021)
